{"source": "patent US20170360863A1", "about": "“USE OF POLYACETYLENIC GLYCOSIDES FOR SUPPRESSION OF GRANULOCYTIC MYELOID-DERIVED SUPPRESSOR CELL ACTIVITIES AND TUMOR METASTASIS” (Academia Sinica, priority 2014, published 2017)", "key": {"[1]": {"tested_on": "4T1-luc2 tumor metastasis", "assay": "4T1-luc2 tumor resection model, tumor metastasis", "format": "in vivo, BALB/c mice", "settings": "23 days post tumor resection", "procedure": "4T1-luc2 cells (5×10^5 cells/100 μl PBS) were orthotopically implanted into mammary fat-pad of BALB/c mice. Primary tumor growth was evaluated by measuring tumor weight and by monitoring bioluminescent imaging of mammary tumors (BL1) every 7 days. For tumor resection mouse model, 4T1-luc2 cells (5×10^5 cells/100 μl PBS) were orthotopically implanted into mammary fat pad of test mice. At day 21 post tumor implantation, the tumor mass was gently surgically removed. Bioluminescent imaging of metastatic tumor was monitored by using Non-invasive in vivo imaging system (IVIS). The body weight of the test mouse was approximately 25 g.\nFor this experiment, at 21 days post orthotopic tumor implantation, the tissue mass of 4T1-luc2 tumors in test mice was surgically removed.\nAt 21 days post implantation, the tumor mass was surgically removed gently. Following surgery, each treatment group was randomly divided into control, F1 and the docetaxel groups (i.e., via iv injection with 10 mg docetaxel/kg every other 3 days). […] The BLI values for each mouse was quantitatively measured and pooled for each test group.\n(§1) Mice were sacrificed at 23 days post tumor resection, lung, liver and spleen of test mice were excised and tumor metastasis measured by bioluminescent imaging."}, "[2]": {"tested_on": "granulocytic and monocytic MDSCs", "assay": "MDSC populations in organs of tumor-resected mice (flow cytometry)", "format": "in vivo, BALB/c mice", "settings": "23 days post tumor resection", "text": "Lung tissues of test mice were harvested and minced with 150 U/mL Type I Collagenase in tissue grinders for 20 to 50 times. After digestion and lysed with ACK buffer, grinded tissues were collected and filtered through 40 μm cell strainer. Spleen tissues were minced gently with PBS in tissue grinders. After lysed with ACK buffer, cells were collected for further analysis. Blood were lysed with ACK buffer for 3 times and harvested for further analysis. All cells were collected and stained with anti-CD11b, and anti-Ly6G/Ly-6C for flow cytometry analysis.\nThe myeloid derived suppressor cell (MDSC) populations in spleen tissue of each test group were investigated.\nas §1"}}}
{"compound": "CC(=O)O[C@@]12CO[C@@H]1C[C@H](O)[C@@]1(C)C(=O)[C@H](O)C3=C(C)[C@@H](OC(=O)[C@H](O)[C@@H](NC(=O)OC(C)(C)C)c4ccccc4)C[C@@](O)([C@@H](OC(=O)c4ccccc4)[C@H]21)C3(C)C", "note": "[docetaxel]", "values": [{"measurement": "tumor metastasis into lung (bioluminescent imaging of excised organs)", "setting": "[1]", "result": "effectively inhibited"}, {"measurement": "BLI value (bioluminescent imaging, whole body)", "setting": "[1]; BP-E-F1 oral 5 mg/kg/day, docetaxel iv 10 mg/kg every other 3 days", "result": "effectively reduce"}, {"measurement": "metastasis rate", "setting": "[1]; F1 oral 5 mg/kg/day, docetaxel iv 10 mg/kg every other 3 days", "result": 12.5, "unit": "%"}, {"measurement": "4T1 tumor-induced accumulation of granulocytic MDSCs in lung, peripheral blood and spleen", "setting": "[2]", "result": "significantly reduced"}]}
